Laboratory results reported in the NIST ThermoML archive (doi:10.1016/j.jct.2012.07.006).
± gives the expanded uncertainty stated by the source.

Tests used:
[1] = 298.15 K; 101.33 kPa; Liquid; Pycnometric method
[2] = excess molar enthalpy (molar enthalpy of mixing); xn = mol fraction of the nth substance listed; details: 298.15 K, 101 kPa, Liquid, Calvet calorimetry

CNc1ccccc1 [N-methylaniline] gave a mass density [1] of 982.237 ± 20 kg/m3.
In the case of CNc1ccccc1 [N-methylaniline] + C1CCCCC1, the excess molar enthalpy ([2]; x1 = 0.0978) is reported as 0.197 ± 0.0043 kcal/mol, the excess molar enthalpy ([2]; x1 = 0.1987) is reported as 0.31 ± 0.00669 kcal/mol and the excess molar enthalpy ([2]; x1 = 0.2934) is reported as 0.364 ± 0.00789 kcal/mol. It also gave an excess molar enthalpy ([2]; x1 = 0.4002) of 0.385 ± 0.00813 kcal/mol, an excess molar enthalpy ([2]; x1 = 0.4937) of 0.389 ± 0.00837 kcal/mol and an excess molar enthalpy ([2]; x1 = 0.5934) of 0.368 ± 0.00789 kcal/mol. It also gave an excess molar enthalpy ([2]; x1 = 0.6935) of 0.313 ± 0.00669 kcal/mol, an excess molar enthalpy ([2]; x1 = 0.7953) of 0.232 ± 0.00502 kcal/mol and an excess molar enthalpy ([2]; x1 = 0.8938) of 0.136 ± 0.00287 kcal/mol.
Work on CNc1ccccc1 [N-methylaniline] + CCCCCCC yielded an excess molar enthalpy ([2]; x1 = 0.102) of 0.196 ± 0.0043 kcal/mol, an excess molar enthalpy ([2]; x1 = 0.1982) of 0.309 ± 0.00669 kcal/mol and an excess molar enthalpy ([2]; x1 = 0.2968) of 0.368 ± 0.00789 kcal/mol. The excess molar enthalpy ([2]; x1 = 0.3935) was 0.395 ± 0.00837 kcal/mol, the excess molar enthalpy ([2]; x1 = 0.4983) was 0.401 ± 0.0086 kcal/mol and the excess molar enthalpy ([2]; x1 = 0.5982) was 0.382 ± 0.00813 kcal/mol. For the same molecule, the excess molar enthalpy ([2]; x1 = 0.6934) was 0.344 ± 0.00741 kcal/mol, the excess molar enthalpy ([2]; x1 = 0.7941) was 0.269 ± 0.00574 kcal/mol and the excess molar enthalpy ([2]; x1 = 0.8939) was 0.162 ± 0.00359 kcal/mol.
Work on CNc1ccccc1 [N-methylaniline] + CCCCCCCC yielded an excess molar enthalpy ([2]; x1 = 0.1045) of 0.204 ± 0.0043 kcal/mol, an excess molar enthalpy ([2]; x1 = 0.2002) of 0.322 ± 0.00693 kcal/mol and an excess molar enthalpy ([2]; x1 = 0.303) of 0.388 ± 0.00837 kcal/mol. It also gave an excess molar enthalpy ([2]; x1 = 0.4117) of 0.419 ± 0.00884 kcal/mol, an excess molar enthalpy ([2]; x1 = 0.4956) of 0.424 ± 0.00908 kcal/mol and an excess molar enthalpy ([2]; x1 = 0.5965) of 0.405 ± 0.0086 kcal/mol. The excess molar enthalpy ([2]; x1 = 0.6933) was 0.361 ± 0.00765 kcal/mol, the excess molar enthalpy ([2]; x1 = 0.791) was 0.285 ± 0.00621 kcal/mol and the excess molar enthalpy ([2]; x1 = 0.889) was 0.184 ± 0.00406 kcal/mol.
CNc1ccccc1 [N-methylaniline] + CCCCCCCCCC showed an excess molar enthalpy ([2]; x1 = 0.1015) of 0.211 ± 0.00454 kcal/mol, an excess molar enthalpy ([2]; x1 = 0.201) of 0.34 ± 0.00717 kcal/mol and an excess molar enthalpy ([2]; x1 = 0.2993) of 0.413 ± 0.00884 kcal/mol. It also gave an excess molar enthalpy ([2]; x1 = 0.3848) of 0.448 ± 0.00956 kcal/mol, an excess molar enthalpy ([2]; x1 = 0.487) of 0.458 ± 0.0098 kcal/mol and an excess molar enthalpy ([2]; x1 = 0.5963) of 0.44 ± 0.00932 kcal/mol. It also gave an excess molar enthalpy ([2]; x1 = 0.6951) of 0.395 ± 0.00837 kcal/mol, an excess molar enthalpy ([2]; x1 = 0.7934) of 0.316 ± 0.00669 kcal/mol and an excess molar enthalpy ([2]; x1 = 0.8899) of 0.205 ± 0.0043 kcal/mol.
CNc1ccccc1 [N-methylaniline] + Cc1ccccc1 gave an excess molar enthalpy ([2]; x1 = 0.0991) of 0.0535 ± 0.0012 kcal/mol, an excess molar enthalpy ([2]; x1 = 0.1956) of 0.088 ± 0.00191 kcal/mol and an excess molar enthalpy ([2]; x1 = 0.2952) of 0.11 ± 0.00239 kcal/mol. The excess molar enthalpy ([2]; x1 = 0.399) was 0.12 ± 0.00263 kcal/mol, the excess molar enthalpy ([2]; x1 = 0.4973) was 0.119 ± 0.00263 kcal/mol and the excess molar enthalpy ([2]; x1 = 0.5922) was 0.111 ± 0.00239 kcal/mol. The excess molar enthalpy ([2]; x1 = 0.6882) was 0.0925 ± 0.00215 kcal/mol, the excess molar enthalpy ([2]; x1 = 0.7892) was 0.0686 ± 0.00143 kcal/mol and the excess molar enthalpy ([2]; x1 = 0.8851) was 0.0397 ± 0.000956 kcal/mol.
C1CCCCC1 [cyclohexane] showed a mass density [1] of 773.96 ± 20 kg/m3.
With CCCCCCCCCC [decane] the mass density [1] was 726.47 ± 20 kg/m3.
For CCCCCCC [heptane], the mass density [1] was 679.71 ± 20 kg/m3.
In the case of CCCCCCCCCCCCCCCC [hexadecane], the mass density [1] is reported as 769.91 ± 20 kg/m3.
Molecule CCCCCCCC [octane] has a mass density [1] of 698.75 ± 20 kg/m3.
Molecule CCCCCCCCCCCCCC [tetradecane] has a mass density [1] of 759.19 ± 20 kg/m3.
In the case of Cc1ccccc1 [toluene], the mass density [1] is reported as 862.346 ± 24 kg/m3.
